Where two headings read alike, the source gives them in different places.
What was measured:
Assay in all cases: SelectScreen Kinase Profiling, single point inhibition and IC50 for off-target kinases
Assay type in all cases: biochemical
off-target kinases [1] = biological target: T1, off-target kinases (Homo sapiens, UniProt Q13976); details: PRKG1, ZLYTE, ATP Km app
T1 sequence (Q13976 1-671): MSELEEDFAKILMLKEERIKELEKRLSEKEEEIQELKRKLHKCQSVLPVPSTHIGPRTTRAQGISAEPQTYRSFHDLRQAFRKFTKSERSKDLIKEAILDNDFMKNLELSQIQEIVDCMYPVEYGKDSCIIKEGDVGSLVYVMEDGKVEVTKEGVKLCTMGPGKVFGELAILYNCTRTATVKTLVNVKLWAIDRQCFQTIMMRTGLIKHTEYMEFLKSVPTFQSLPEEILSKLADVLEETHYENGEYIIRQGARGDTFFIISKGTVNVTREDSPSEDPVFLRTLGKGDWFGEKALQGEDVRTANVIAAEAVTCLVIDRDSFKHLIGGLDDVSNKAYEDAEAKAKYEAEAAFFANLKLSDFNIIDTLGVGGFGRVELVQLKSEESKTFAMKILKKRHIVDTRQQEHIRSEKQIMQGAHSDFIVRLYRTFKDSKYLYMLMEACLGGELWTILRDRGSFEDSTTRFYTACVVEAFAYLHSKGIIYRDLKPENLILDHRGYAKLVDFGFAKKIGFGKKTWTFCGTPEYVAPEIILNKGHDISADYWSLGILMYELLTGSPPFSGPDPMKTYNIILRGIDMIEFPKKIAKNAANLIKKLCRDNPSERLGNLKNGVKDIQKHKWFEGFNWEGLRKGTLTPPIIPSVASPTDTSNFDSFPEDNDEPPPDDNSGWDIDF

off-target kinases [2] = biological target: off-target kinases (Homo sapiens, UniProt Q86Z02); details: HIPK1 (Myak), ZLYTE, ATP Km app
off-target kinases [3] = biological target: off-target kinases (Homo sapiens, UniProt P00533, T790M); details: EGFR (ErbB1) T790M, mutant y, ZLYTE, ATP Km app
off-target kinases [4] = biological target: off-target kinases (Homo sapiens, UniProt Q02779); details: MAP3K10 (MLK2), LanthaScreen Binding
off-target kinases [5] = biological target: T2, off-target kinases (Homo sapiens, UniProt O60285); details: NUAK1 (ARK5), ATP Km app, Adapta
T2 sequence (O60285 1-661): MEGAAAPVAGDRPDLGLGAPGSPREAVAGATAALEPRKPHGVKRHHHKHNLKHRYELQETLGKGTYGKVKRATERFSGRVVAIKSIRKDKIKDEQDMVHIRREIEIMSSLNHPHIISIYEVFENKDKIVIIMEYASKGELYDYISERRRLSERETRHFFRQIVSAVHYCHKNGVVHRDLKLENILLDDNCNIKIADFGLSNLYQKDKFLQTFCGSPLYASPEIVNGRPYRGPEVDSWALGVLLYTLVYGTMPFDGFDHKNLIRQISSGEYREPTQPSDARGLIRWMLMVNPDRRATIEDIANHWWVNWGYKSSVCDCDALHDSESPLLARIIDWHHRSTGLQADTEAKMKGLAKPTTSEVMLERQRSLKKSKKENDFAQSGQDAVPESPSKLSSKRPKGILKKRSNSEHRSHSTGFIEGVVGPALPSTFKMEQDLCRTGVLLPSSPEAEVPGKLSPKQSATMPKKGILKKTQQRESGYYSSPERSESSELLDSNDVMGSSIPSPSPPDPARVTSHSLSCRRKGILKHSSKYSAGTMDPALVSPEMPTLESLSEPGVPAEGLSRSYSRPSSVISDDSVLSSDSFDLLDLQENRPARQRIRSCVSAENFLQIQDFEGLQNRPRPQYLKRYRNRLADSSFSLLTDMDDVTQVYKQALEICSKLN

off-target kinases [6] = biological target: off-target kinases (Homo sapiens, UniProt P35968); details: KDR (VEGFR2), ATP Km app, ZLYTE
Sequence of off-target kinases (Homo sapiens, UniProt P35968) (P35968 20-1356): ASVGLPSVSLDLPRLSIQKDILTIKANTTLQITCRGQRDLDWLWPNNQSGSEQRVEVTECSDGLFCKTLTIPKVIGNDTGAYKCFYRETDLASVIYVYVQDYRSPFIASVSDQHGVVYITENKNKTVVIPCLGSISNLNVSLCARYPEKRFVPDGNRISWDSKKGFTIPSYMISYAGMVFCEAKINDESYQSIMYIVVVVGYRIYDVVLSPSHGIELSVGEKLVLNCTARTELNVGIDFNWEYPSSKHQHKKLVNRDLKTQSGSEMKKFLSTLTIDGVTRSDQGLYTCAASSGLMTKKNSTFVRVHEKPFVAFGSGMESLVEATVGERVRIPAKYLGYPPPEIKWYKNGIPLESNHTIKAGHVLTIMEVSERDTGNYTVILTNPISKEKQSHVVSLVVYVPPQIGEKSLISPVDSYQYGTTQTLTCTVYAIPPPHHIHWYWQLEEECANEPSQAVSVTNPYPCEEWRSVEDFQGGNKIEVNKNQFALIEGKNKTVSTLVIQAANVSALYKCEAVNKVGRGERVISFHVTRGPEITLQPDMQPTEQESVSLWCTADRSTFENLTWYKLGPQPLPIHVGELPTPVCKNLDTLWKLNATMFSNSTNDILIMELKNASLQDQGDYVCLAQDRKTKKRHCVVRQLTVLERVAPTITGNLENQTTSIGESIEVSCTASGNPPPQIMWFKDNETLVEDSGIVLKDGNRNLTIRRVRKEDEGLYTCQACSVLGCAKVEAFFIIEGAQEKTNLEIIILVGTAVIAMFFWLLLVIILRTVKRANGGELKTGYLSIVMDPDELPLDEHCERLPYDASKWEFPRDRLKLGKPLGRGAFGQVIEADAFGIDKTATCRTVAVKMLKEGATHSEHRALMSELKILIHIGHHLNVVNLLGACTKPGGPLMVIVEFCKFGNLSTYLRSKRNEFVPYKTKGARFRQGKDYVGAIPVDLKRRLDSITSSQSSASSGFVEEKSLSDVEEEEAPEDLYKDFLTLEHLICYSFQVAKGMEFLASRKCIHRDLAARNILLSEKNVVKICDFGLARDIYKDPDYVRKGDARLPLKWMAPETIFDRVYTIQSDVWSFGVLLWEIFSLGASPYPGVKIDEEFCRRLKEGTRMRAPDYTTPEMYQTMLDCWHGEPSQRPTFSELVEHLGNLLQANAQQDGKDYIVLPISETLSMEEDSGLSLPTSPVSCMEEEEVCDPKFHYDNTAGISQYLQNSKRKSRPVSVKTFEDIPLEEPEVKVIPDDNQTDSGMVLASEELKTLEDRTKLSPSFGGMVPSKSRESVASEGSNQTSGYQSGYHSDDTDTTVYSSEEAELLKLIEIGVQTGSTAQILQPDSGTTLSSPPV

Sequence of off-target kinases (Homo sapiens, UniProt Q86Z02) (Q86Z02 whole entry): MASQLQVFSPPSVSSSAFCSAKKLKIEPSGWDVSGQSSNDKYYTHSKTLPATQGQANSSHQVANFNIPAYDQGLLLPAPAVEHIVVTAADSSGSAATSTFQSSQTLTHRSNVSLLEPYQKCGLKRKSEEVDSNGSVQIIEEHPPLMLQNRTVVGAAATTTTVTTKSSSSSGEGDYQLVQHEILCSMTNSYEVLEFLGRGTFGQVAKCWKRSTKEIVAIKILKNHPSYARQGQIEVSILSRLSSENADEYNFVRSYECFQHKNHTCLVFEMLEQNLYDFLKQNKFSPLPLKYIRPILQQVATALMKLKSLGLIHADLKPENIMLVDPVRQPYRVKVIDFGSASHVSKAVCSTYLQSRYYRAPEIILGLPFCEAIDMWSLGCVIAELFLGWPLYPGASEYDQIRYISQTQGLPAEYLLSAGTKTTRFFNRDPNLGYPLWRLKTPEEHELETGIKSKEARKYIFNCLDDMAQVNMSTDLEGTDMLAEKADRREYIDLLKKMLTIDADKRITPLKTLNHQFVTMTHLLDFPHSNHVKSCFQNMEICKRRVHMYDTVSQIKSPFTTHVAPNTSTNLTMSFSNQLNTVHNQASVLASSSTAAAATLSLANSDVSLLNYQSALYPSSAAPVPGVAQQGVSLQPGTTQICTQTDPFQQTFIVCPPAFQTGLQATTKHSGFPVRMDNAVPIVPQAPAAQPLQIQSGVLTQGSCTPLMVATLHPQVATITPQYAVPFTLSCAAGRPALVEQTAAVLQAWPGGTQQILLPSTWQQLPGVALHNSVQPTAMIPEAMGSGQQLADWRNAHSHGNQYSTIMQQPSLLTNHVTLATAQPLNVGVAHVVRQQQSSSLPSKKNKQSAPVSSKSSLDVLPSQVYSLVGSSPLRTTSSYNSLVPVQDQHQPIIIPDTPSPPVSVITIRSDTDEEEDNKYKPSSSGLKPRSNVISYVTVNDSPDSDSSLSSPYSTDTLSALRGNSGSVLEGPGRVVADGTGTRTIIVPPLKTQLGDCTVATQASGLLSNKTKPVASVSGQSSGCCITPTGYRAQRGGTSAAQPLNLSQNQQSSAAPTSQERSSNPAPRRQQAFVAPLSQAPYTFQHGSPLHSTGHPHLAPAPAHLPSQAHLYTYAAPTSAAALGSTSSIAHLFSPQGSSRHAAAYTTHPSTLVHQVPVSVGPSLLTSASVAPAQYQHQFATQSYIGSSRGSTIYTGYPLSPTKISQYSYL
Sequence of off-target kinases (Homo sapiens, UniProt P00533, T790M) (P00533 25-1210 T790M): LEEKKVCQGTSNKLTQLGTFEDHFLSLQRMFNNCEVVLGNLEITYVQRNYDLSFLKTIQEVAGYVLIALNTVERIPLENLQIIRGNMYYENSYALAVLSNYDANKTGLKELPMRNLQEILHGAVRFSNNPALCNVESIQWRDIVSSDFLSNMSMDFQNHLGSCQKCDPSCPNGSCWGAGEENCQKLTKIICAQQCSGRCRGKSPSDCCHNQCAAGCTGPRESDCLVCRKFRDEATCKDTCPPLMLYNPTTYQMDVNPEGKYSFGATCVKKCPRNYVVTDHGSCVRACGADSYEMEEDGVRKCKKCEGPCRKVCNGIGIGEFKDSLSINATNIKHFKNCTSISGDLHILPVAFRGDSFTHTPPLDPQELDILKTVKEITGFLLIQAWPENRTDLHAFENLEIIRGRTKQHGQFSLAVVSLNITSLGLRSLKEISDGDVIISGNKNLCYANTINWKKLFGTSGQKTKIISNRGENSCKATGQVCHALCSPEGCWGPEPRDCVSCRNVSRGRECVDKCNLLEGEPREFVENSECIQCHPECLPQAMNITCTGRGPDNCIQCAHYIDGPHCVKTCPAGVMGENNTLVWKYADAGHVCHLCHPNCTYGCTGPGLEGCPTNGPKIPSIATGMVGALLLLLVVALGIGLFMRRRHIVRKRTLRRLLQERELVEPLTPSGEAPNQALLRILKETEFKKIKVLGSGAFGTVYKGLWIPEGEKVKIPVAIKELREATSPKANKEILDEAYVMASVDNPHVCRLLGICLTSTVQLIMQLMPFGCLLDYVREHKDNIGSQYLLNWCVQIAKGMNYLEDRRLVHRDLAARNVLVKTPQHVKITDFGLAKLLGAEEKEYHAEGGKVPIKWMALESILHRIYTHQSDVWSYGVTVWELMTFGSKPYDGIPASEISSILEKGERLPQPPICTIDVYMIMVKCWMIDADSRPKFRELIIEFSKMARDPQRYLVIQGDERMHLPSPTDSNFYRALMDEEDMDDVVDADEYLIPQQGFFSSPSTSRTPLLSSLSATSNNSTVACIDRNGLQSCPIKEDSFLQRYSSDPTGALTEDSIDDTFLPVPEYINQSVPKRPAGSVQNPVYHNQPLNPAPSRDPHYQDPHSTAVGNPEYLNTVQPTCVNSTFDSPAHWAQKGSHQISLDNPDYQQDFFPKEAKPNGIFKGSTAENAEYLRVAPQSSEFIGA
Sequence of off-target kinases (Homo sapiens, UniProt Q02779) (Q02779 whole entry): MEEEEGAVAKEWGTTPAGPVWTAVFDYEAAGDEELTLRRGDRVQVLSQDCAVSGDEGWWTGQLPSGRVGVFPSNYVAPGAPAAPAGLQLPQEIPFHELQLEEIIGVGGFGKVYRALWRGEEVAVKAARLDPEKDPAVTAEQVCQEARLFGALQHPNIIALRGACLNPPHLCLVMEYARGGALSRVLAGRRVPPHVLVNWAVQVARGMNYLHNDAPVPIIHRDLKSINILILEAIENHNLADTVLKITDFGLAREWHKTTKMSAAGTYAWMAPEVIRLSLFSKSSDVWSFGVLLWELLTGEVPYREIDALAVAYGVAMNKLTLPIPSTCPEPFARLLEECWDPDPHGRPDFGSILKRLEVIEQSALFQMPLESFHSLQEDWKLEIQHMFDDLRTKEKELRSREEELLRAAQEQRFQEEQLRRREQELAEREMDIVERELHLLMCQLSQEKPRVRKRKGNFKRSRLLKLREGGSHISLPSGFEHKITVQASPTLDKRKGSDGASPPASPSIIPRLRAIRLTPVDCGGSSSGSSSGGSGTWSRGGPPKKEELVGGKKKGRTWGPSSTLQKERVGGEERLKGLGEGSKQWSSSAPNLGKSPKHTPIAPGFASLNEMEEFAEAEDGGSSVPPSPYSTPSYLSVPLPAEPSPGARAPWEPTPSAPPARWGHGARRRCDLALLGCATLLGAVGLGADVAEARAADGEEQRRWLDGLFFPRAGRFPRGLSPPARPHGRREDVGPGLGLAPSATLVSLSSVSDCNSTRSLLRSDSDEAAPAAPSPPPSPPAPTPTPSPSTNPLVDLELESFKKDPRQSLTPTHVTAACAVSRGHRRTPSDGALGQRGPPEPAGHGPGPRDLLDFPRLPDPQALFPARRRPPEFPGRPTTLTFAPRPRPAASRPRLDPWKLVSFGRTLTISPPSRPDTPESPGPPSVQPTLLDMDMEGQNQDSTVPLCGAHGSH

N#Cc1cc(-c2ncnc(Nc3ccc(N4CCN(C5COC5)CC4)cc3)n2)ccc1OC1CCOCC1 [Compound 1, 5-(4-((4-(4-(oxetan-3-yl)piperazin-1-yl)phenyl)amino)-1,3,5-triazin-2-yl)-2-((tetrahydro-2H-pyran-4-yl)oxy)benzonitrile]
inhibition (off-target kinases [1]; read-out: % Inhibition 1): 2%
inhibition (off-target kinases [1]; read-out: % Inhibition 2): 5%
inhibition (off-target kinases [1]; read-out: % Inhibition Avg): 3%
inhibition (off-target kinases [2]; read-out: % Inhibition 1): 11%
inhibition (off-target kinases [2]; read-out: % Inhibition 2): 13%
inhibition (off-target kinases [2]; read-out: % Inhibition Avg): 12%
inhibition (off-target kinases [3]; read-out: % Inhibition 1): 25%
inhibition (off-target kinases [3]; read-out: % Inhibition 2): 25%
inhibition (off-target kinases [3]; read-out: % Inhibition Avg): 25%
inhibition (off-target kinases [4]; read-out: % Inhibition 1): 58%
inhibition (off-target kinases [4]; read-out: % Inhibition 2): 60%
inhibition (off-target kinases [4]; read-out: % Inhibition Avg): 59%
inhibition (off-target kinases [5]; read-out: % Inhibition 1): 83%
inhibition (off-target kinases [5]; read-out: % Inhibition 2): 83%
inhibition (off-target kinases [5]; read-out: % Inhibition Avg): 83%
inhibition (off-target kinases [6]; read-out: % Inhibition 1): 51%
inhibition (off-target kinases [6]; read-out: % Inhibition 2): 53%
inhibition (off-target kinases [6]; read-out: % Inhibition Avg): 52%

Reference: patent US11572590B2, “Methods for evaluating tumor cell spheroids using 3D microfluidic cell culture device” (Dana-Farber Cancer Institute, Inc., priority 2017, dated 2023)
